For 24 compounds, IC50 results are on record in patent publication US8623859B2, “Bradykinin B1 antagonists” (Evotec AG, priority 2008, dated 2014).

For this test, the target named is T1, human B1 (Homo sapiens, UniProt P46663).
T1 construct: host or cells: CHO-K1
T1 sequence (P46663 1-353): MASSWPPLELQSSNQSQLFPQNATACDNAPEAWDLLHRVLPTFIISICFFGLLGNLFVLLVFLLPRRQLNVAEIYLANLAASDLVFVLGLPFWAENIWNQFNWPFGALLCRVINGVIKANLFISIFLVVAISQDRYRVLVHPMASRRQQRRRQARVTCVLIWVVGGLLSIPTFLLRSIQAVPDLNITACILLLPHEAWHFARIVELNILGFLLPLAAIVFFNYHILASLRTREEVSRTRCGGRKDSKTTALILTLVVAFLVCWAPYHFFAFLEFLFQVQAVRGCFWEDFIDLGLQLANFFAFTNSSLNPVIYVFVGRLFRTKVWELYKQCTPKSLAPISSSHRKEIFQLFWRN
As to the kind of experiment: Calcium flux assay for Bradykinin B1 antagonist, CHO-K1 cell line expressing human B1. Type of test: cell-based. Conditions: CHO-K1 cells expressing human B1, agonist Lys-(Des-Arg)-Bradykinin, read-out: Potency (IC50 value against human B1). Put shortly: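 Inhibition of B1 agonist-evoked intracellular Ca2+ rise was followed by continuous fluorescence at 538 nm, with integrated, background-normalized signals plotted versus log compound concentration. Test compounds (eight 10-fold dilutions, triplicate, 1% DMSO final) were added 30 min at 25° C beforehand to Fluo-4AM-loaded human B1 CHO-K1 cells in pH 7.4 assay buffer.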
In general terms: A change in cytosolic calcium serves as a functional read-out for many receptors and channels.

Where a name gives a salt, the structure may show the parent alone. Some results are limits rather than exact numbers.

On to `COc1cc(C)c(S(=O)(=O)N(C)Cc2cc(C(=O)NCc3ccc(CN4CCCCC4C)cc3)co2)c(C)c1` (stereo not drawn) [Ex 99, 5-({[(4-Methoxy-2,6-dimethylphenyl)sulfonyl](methyl)amino}methyl)-N-{4-[(2-methylpiperidin-1-yl)methyl]benzyl}furan-3-carboxamide trifluoroacetate], for which the IC50 (in general, the concentration at which inhibition is half-maximal) fell in the range of 100 to 1000 nM.

For the compound `COc1cc(C)c(S(=O)(=O)N(C)Cc2cc(C(=O)NCc3ccc(CN4CCCCC4)cc3)co2)c(C)c1` [Ex 100, 5-({[(4-Methoxy-2,6-dimethylphenyl)sulfonyl](methyl)amino}methyl)-N-[4-(piperidin-1-ylmethyl)benzyl]furan-3-carboxamide trifluoroacetate], the IC50 fell in the range of 100 to 1000 nM.

Regarding `COc1cc(C)c(S(=O)(=O)N(C)Cc2cc(C(=O)NCc3ccc(CN4CCCCCC4)cc3)co2)c(C)c1` [Ex 101, N-[4-(Azepan-1-ylmethyl)benzyl]-5-({[(4-methoxy-2,6-dimethylphenyl)sulfonyl](methyl)amino}methyl)furan-3-carboxamide trifluoroacetate], the IC50 was in the range of 100 to 1000 nM.

With `CCN(Cc1cc(C(=O)N(C)Cc2ccc(CN3CCCC3)cc2)co1)S(=O)(=O)c1c(C)cc(OC)cc1C` [Ex 102, 5-({Ethyl[(4-methoxy-2,6-dimethylphenyl)sulfonyl]amino}methyl)-N-methyl-N-[4-(pyrrolidin-1-ylmethyl)benzyl]furan-3-carboxamide trifluoroacetate], the IC50 was in the range of 100 to 1000 nM.

On to `CCN(Cc1cc(C(=O)N(C)Cc2ccc(C3=NCCN3)cc2)co1)S(=O)(=O)c1c(C)cc(OC)cc1C` [Ex 103, N-[4-(4,5-Dihydro-1H-imidazol-2-yl)benzyl]-5-({ethyl[(4-methoxy-2,6-dimethylphenyl)sulfonyl]amino}methyl)-N-methylfuran-3-carboxamide trifluoroacetate], for which the IC50 was 10 to 100 nM.

Turning to `CCN(Cc1cc(C(=O)NCCc2ccc(C3=NCCN3)cc2)co1)S(=O)(=O)c1c(C)cc(OC)cc1C` [Ex 104, N-{2-[4-(4,5-Dihydro-1H-imidazol-2-yl)phenyl]ethyl}-5-({ethyl[(4-methoxy-2,6-dimethylphenyl)sulfonyl]amino}methyl)furan-3-carboxamide trifluoroacetate], the IC50 was in the range of 10 to 100 nM.

Take `COc1cc(C)c(S(=O)(=O)N(Cc2cc(C(=O)N3CCN(CC4CCN(C)CC4)CC3)co2)C2CC2)c(C)c1` [Ex 105, N-Cyclopropyl-4-methoxy-2,6-dimethyl-N-{[4-({4-[(1-methylpiperidin-4-yl)methyl]piperazin-1-yl}carbonyl)furan-2-yl]methyl}benzenesulfonamide trifluoroacetate]: the IC50 is 10 to 100 nM.

Turning to `COc1cc(C)c(S(=O)(=O)N(Cc2cc(C(=O)N3CCN(CC4CCCN(C)C4)CC3)co2)C2CC2)c(C)c1` (stereo not drawn) [Ex 106, N-Cyclopropyl-4-methoxy-2,6-dimethyl-N-{[4-({4-[(1-methylpiperidin-3-yl)methyl]piperazin-1-yl}carbonyl)furan-2-yl]methyl}benzenesulfonamide trifluoroacetate], the IC50 lay in the range of 10 to 100 nM.

With `COc1cc(C)c(S(=O)(=O)N(Cc2cc(C(=O)N3CCN(C4CC5CCC(C4)N5C)CC3)co2)C2CC2)c(C)c1` (stereo not drawn) [Ex 107, N-Cyclopropyl-4-methoxy-2,6-dimethyl-N-[(4-{[4-(8-methyl-8-azabicyclo[3.2.1]oct-3-yl)piperazin-1-yl]carbonyl}furan-2-yl)methyl]benzenesulfonamide trifluoroacetate], the IC50 is 10 to 100 nM.

On to `COc1cc(C)c(S(=O)(=O)N(Cc2cc(C(=O)N3CCN(C4CC(C)(C)N(C)C(C)(C)C4)CC3)co2)C2CC2)c(C)c1` [Ex 108, N-Cyclopropyl-4-methoxy-2,6-dimethyl-N-[(4-{[4-(1,2,2,6,6-pentamethylpiperidin-4-yl)piperazin-1-yl]carbonyl}furan-2-yl)methyl]benzenesulfonamide trifluoroacetate], for which the IC50 was 100 to 1000 nM.

As to `COc1cc(C)c(S(=O)(=O)N(Cc2cc(C(=O)N3CCN(CCN4CCCCC4)CC3)co2)C2CC2)c(C)c1` [Ex 109, N-Cyclopropyl-4-methoxy-2,6-dimethyl-N-[(4-{[4-(2-piperidin-1-ylethyl)piperazin-1-yl]carbonyl}furan-2-yl)methyl]benzenesulfonamide trifluoroacetate], the IC50 fell in the range of 100 to 1000 nM.

As to `COc1cc(C)c(S(=O)(=O)N(Cc2cc(C(=O)N3CCN(CCc4ccncc4)CC3)co2)C2CC2)c(C)c1` [Ex 110, N-Cyclopropyl-4-methoxy-2,6-dimethyl-N-[(4-{[4-(2-pyridin-4-ylethyl)piperazin-1-yl]carbonyl}furan-2-yl)methyl]benzenesulfonamide trifluoroacetate], the IC50 lay within 100 to 1000 nM.

With `COc1cc(C)c(S(=O)(=O)N(Cc2cc(C(=O)N3CCN(Cc4cccnc4)CC3)co2)C2CC2)c(C)c1` [Ex 111, N-Cyclopropyl-4-methoxy-2,6-dimethyl-N-[(4-{[4-(pyridin-3-ylmethyl)piperazin-1-yl]carbonyl}furan-2-yl)methyl]benzenesulfonamide trifluoroacetate], the IC50 fell in the range of 100 to 1000 nM.

In the case of `COc1cc(C)c(S(=O)(=O)N(Cc2cc(C(=O)N3CCN(CCN4CCCC4)CC3)co2)C2CC2)c(C)c1` [Ex 112, N-Cyclopropyl-4-methoxy-2,6-dimethyl-N-[(4-{[4-(2-pyrrolidin-1-ylethyl)piperazin-1-yl]carbonyl}furan-2-yl)methyl]benzenesulfonamide trifluoroacetate], the IC50 was 10 to 100 nM.

As to `CCN1CCN(CCNC(=O)c2coc(CN(C3CC3)S(=O)(=O)c3c(C)cc(OC)cc3C)c2)CC1` [Ex 113, 5-({Cyclopropyl[(4-methoxy-2,6-dimethylphenyl)sulfonyl]amino}methyl)-N-[2-(4-ethylpiperazin-1-yl)ethyl]furan-3-carboxamide trifluoroacetate], the IC50 fell in the range of 100 to 1000 nM.

In the case of `COc1cc(C)c(S(=O)(=O)N(Cc2cc(C(=O)N3CCN(CCc4ccccn4)CC3)co2)C2CC2)c(C)c1` [Ex 114, N-Cyclopropyl-4-methoxy-2,6-dimethyl-N-[(4-{[4-(2-pyridin-2-ylethyl)piperazin-1-yl]carbonyl}furan-2-yl)methyl]benzenesulfonamide trifluoroacetate], the IC50 lay within 100 to 1000 nM.

As to `COc1cc(C)c(S(=O)(=O)N(Cc2cc(C(=O)N3CCN(CCCN4CCCC4)CC3)co2)C2CC2)c(C)c1` [Ex 115, N-Cyclopropyl-4-methoxy-2,6-dimethyl-N-[(4-{[4-(3-pyrrolidin-1-ylpropyl)piperazin-1-yl]carbonyl}furan-2-yl)methyl]benzenesulfonamide trifluoroacetate], the IC50 lay within 10 to 100 nM.

With `COc1cc(C)c(S(=O)(=O)N(Cc2cc(C(=O)N3CCCN(CCCN4CCCC4)CC3)co2)C2CC2)c(C)c1` [Ex 116, N-Cyclopropyl-4-methoxy-2,6-dimethyl-N-[(4-{[4-(3-pyrrolidin-1-ylpropyl)-1,4-diazepan-1-yl]carbonyl}furan-2-yl)methyl]benzenesulfonamide trifluoroacetate], the IC50 is 10 to 100 nM.

Consider `COc1cc(C)c(S(=O)(=O)N(Cc2cc(C(=O)N3CCN(CC(=O)Nc4cccnc4)CC3)co2)C2CC2)c(C)c1` [Ex 117, 2-(4-{[5-({Cyclopropyl[(4-methoxy-2,6-dimethylphenyl)sulfonyl]amino}methyl)furan-3-yl]carbonyl}piperazin-1-yl)-N-pyridin-3-ylacetamide trifluoroacetate], for which the IC50 lay in the range of 100 to 1000 nM.

With `COc1cc(C)c(S(=O)(=O)N(Cc2cc(C(=O)N3CCN(CCCN(C)C)CC3)co2)C2CC2)c(C)c1` [Ex 118, N-Cyclopropyl-N-{[4-({4-[3-(dimethylamino)propyl]piperazin-1-yl}carbonyl)furan-2-yl]methyl}-4-methoxy-2,6-dimethylbenzenesulfonamide trifluoroacetate], the IC50 was 10 to 100 nM.

`COc1cc(C)c(S(=O)(=O)N(Cc2cc(C(=O)N3CCC(N4CCN(C)CC4)CC3)co2)C2CC2)c(C)c1` [Ex 119, N-Cyclopropyl-4-methoxy-2,6-dimethyl-N-[(4-{[4-(4-methylpiperazin-1-yl)piperidin-1-yl]carbonyl}furan-2-yl)methyl]benzenesulfonamide trifluoroacetate]: the concentration for half-maximal inhibition (IC50) fell in the range of 100 to 1000 nM.

As for `COc1cc(C)c(S(=O)(=O)N(Cc2cc(C(=O)N3CCC(CCN4CCCC4)CC3)co2)C2CC2)c(C)c1` [Ex 120, N-Cyclopropyl-4-methoxy-2,6-dimethyl-N-[(4-{[4-(2-pyrrolidin-1-ylethyl)piperidin-1-yl]carbonyl}furan-2-yl)methyl]benzenesulfonamide trifluoroacetate], the IC50 is < 10 nM.

In the case of `CCN(Cc1cc(C(=O)N(C)Cc2ccc(CN3CCCC3)cc2)co1)S(=O)(=O)c1c(Cl)cccc1Cl` [Ex 121, 5-({[(2,6-Dichlorophenyl)sulfonyl](ethyl)amino}methyl)-N-methyl-N-[4-(pyrrolidin-1-ylmethyl)benzyl]furan-3-carboxamide trifluoroacetate], the IC50 was in the range of 100 to 1000 nM.

Take `CCN(Cc1cc(C(=O)NCCc2ccc(C3=NCCN3)cc2)co1)S(=O)(=O)c1c(Cl)cccc1Cl` [Ex 122, 5-({[(2,6-Dichlorophenyl)sulfonyl](ethyl)amino}methyl)-N-{2-[4-(4,5-dihydro-1H-imidazol-2-yl)phenyl]ethyl}furan-3-carboxamide trifluoroacetate]: the IC50 was in the range of 100 to 1000 nM.
